Where only a bound is given, the exact number is not on record here.

In the experiment the test system is HCV 1b_Huh-Luc/Neo-ET cell line persistently expressing a bicistronic genotype 1b replicon in Huh 7 cells. Description: HCV replicon assay (luciferase readout). The class given is cell-based. The conditions noted are these: Hepatitis C virus, Huh-7, 72 h, read-out: Inhibition of HCV genotype 1b. As for the experimental part:
Biological activity of the compounds of the invention was determined using an HCV replicon assay. The HCV 1b_Huh-Luc/Neo-ET cell line persistently expressing a bicistronic genotype 1b replicon in Huh 7 cells was obtained from ReBLikon GMBH. This cell line was used to test compound inhibition using luciferase enzyme activity readout as a measurement of compound inhibition of replicon levels.
On Day 1 (the day after plating), each compound is added in triplicate to the cells. Plates incubated for 72 h prior to running the luciferase assay. Enzyme activity was measured using a Bright-Glo Kit (cat. number E2620) manufactured by Promega Corporation. The following equation was used to generate a percent control value for each compound. % Control=(Average Compound Value/Average Control)*100
The EC50 value was determined using GraphPad Prism and the following equation: Y=Bottom+(Top−Bottom)/(1+10^((Log IC50−X)*HillSlope))
EC50 values of compounds are determined several times in the replicon assay.
Example compounds of the disclosed invention are illustrated in Tables 1-14 attached as appendices. The tables show inhibitory activity of many of the example compounds with respect to HCV 1b. […] The tables further provide mass spectrometry results for the synthesized example compounds.
For the compound `C[C@H](NC(=O)[C@@H]1CCCN1C(=O)[C@H](NC(=O)OC(C)(C)C)c1ccccc1)c1ccc(C#Cc2ccc(-c3cnc([C@@H]4CCCN4C(=O)[C@H](NC(=O)OC(C)(C)C)c4ccccc4)[nH]3)cc2)cc1` [Compound 169], the EC50 fell in the range of 1 to 9.9 nM.
As for `CC(C)[C@H](NC(=O)C1CC1)C(=O)N1CCC[C@H]1c1ncc(-c2ccc(C#Cc3ccc(-c4cnc([C@@H]5CCCN5C(=O)[C@@H](NC(=O)C5CC5)C(C)C)[nH]4)cc3)cc2)[nH]1` [Compound 170], the figure is 1 to 9.9 nM; as for `COC(=O)N[C@@H](C(=O)N1CCC[C@H]1C(=O)Nc1ccc(C#Cc2ccc(-c3cnc([C@@H]4CCCN4C(=O)[C@H](NC(=O)OC)c4ccccc4)[nH]3)cc2)cc1)c1ccccc1` [Compound 171], below 1 nM; as for `CO[C@@H](C(=O)N1CCC[C@H]1c1ncc(-c2ccc(C#Cc3ccc(-c4cnc([C@@H]5CCCN5C(=O)[C@H](OC)c5ccccc5)[nH]4)cc3)cc2)[nH]1)c1ccccc1` [Compound 172], below 1 nM.
For the compound `CCN(CC)[C@@H](C(=O)N1CCC[C@H]1c1ncc(-c2ccc(C#Cc3ccc(-c4cnc([C@@H]5CCCN5C(=O)[C@@H](c5ccccc5)N(CC)CC)[nH]4)cc3)cc2)[nH]1)c1ccccc1` [Compound 173], the EC50 is below 1 nM.
As for `COC(=O)N[C@@H](C(=O)N1CCC[C@H]1c1ncc(-c2ccc(C#Cc3ccc(-c4cnc([C@@H]5CCCN5C(=O)[C@@H](c5ccccc5)N(C)C)[nH]4)cc3)cc2)[nH]1)c1ccccc1` [Compound 174], the figure is below 1 nM; as for `CCN(CC)[C@@H](C(=O)N1CCC[C@H]1c1ncc(-c2ccc(C#Cc3ccc(-c4cnc([C@@H]5CCCN5C(=O)[C@H](NC(=O)OC)c5ccccc5)[nH]4)cc3)cc2)[nH]1)c1ccccc1` [Compound 175], below 1 nM; as for `COC(=O)N[C@@H](C(=O)N1CCC[C@H]1c1ncc(-c2ccc(C#Cc3ccc(-c4cnc([C@@H]5CCCN5C(=O)c5nccn5C)[nH]4)cc3)cc2)[nH]1)c1ccccc1` [Compound 176], below 1 nM.
Next, `COC(=O)N[C@@H](C(=O)N1CCC[C@H]1c1ncc(-c2ccc(C#Cc3ccc(-c4cnc([C@@H]5CCCN5C(=O)[C@H]5CCCO5)[nH]4)cc3)cc2)[nH]1)c1ccccc1` [Compound 177]: below 1 nM.
As for `COC(=O)N[C@@H](C(=O)N1CCC[C@H]1c1ncc(-c2ccc(C#Cc3ccc(-c4cnc([C@@H]5CCCN5C(=O)[C@@H](c5ccccc5)N5CCCC5)[nH]4)cc3)cc2)[nH]1)c1ccccc1` [Compound 178], the figure is below 1 nM; as for `COC(=O)N[C@@H](C(=O)N1CCC[C@H]1c1ncc(-c2ccc(C#Cc3ccc(-c4cnc([C@@H]5CCCN5C(=O)[C@H](OC)c5ccccc5)[nH]4)cc3)cc2)[nH]1)c1ccccc1` [Compound 179], below 1 nM.
As to `COC(=O)N[C@H](Cc1ccccc1)C(=O)N1CCC[C@H]1c1ncc(-c2ccc(C#Cc3ccc(-c4cnc([C@@H]5CCCN5C(=O)[C@H](NC(=O)OC)c5ccccc5)[nH]4)cc3)cc2)[nH]1` [Compound 180], the EC50 is below 1 nM.
`COC(=O)N[C@@H](C(=O)N1CCC[C@H]1c1ncc(-c2ccc(C#Cc3ccc(-c4cnc([C@@H]5CCCN5C(=O)Cc5cccnc5)[nH]4)cc3)cc2)[nH]1)c1ccccc1` [Compound 181]: the EC50 was below 1 nM.
Next, `COC(=O)N[C@@H](C(=O)N1CCC[C@H]1c1ncc(-c2ccc(C#Cc3ccc(-c4cnc([C@@H]5CCCN5C(=O)C5CCN(C)CC5)[nH]4)cc3)cc2)[nH]1)c1ccccc1` [Compound 182]: below 1 nM; `COC(=O)N[C@@H](C(=O)N1CCC[C@H]1c1ncc(-c2ccc(C#Cc3ccc(-c4cnc([C@@H]5CCCN5C(=O)c5cccnc5)[nH]4)cc3)cc2)[nH]1)c1ccccc1` [Compound 183]: below 1 nM.
As for `O=C([C@@H](c1ccccc1)N1CCOCC1)N1CCC[C@H]1c1ncc(-c2ccc(C#Cc3ccc(-c4cnc([C@@H]5CCCN5C(=O)[C@@H](c5ccccc5)N5CCOCC5)[nH]4)cc3)cc2)[nH]1` [Compound 184], the figure is below 1 nM; as for `COC(=O)N[C@@H](C(=O)N1CCC[C@H]1c1ncc(-c2ccc(C#Cc3ccc(-c4cnc([C@@H]5CCCN5C(=O)[C@@H](c5ccccc5)N5CCOCC5)[nH]4)cc3)cc2)[nH]1)c1ccccc1` [Compound 185], below 1 nM.
Next, `COC(=O)N[C@@H](C(=O)N1CCC[C@H]1c1ncc(-c2ccc(C#Cc3ccc(-c4cnc([C@@H]5CCCN5C(=O)[C@@H]5CCCO5)[nH]4)cc3)cc2)[nH]1)c1ccccc1` [Compound 186]: below 1 nM.
`COC(=O)N[C@@H](C(=O)N1CCC[C@H]1c1ncc(-c2ccc(C#Cc3ccc(-c4cnc([C@@H]5CCCN5C(=O)[C@H]5CCCN5C)[nH]4)cc3)cc2)[nH]1)c1ccccc1` [Compound 187]: the EC50 was below 1 nM.
Turning to `COC(=O)N[C@@H](C(=O)N1CCC[C@H]1c1ncc(-c2ccc(C#Cc3ccc(-c4cnc([C@@H]5CCCN5C(=O)[C@@H](c5ccccc5)N5CCCCC5)[nH]4)cc3)cc2)[nH]1)c1ccccc1` [Compound 188], the EC50 is below 1 nM.
Next, `CC(C)(C)OC(=O)N[C@@H](C(=O)N1CCC[C@H]1C(=O)NCc1ccc(C#Cc2ccc(-c3cnc([C@@H]4CCCN4C(=O)[C@H](NC(=O)OC(C)(C)C)c4ccccc4)[nH]3)cc2)cc1)c1ccccc1` [Compound 189]: below 1 nM.
Regarding `O=C(N[C@@H](C(=O)N1CCC[C@H]1C(=O)NCc1ccc(C#Cc2ccc(-c3cnc([C@@H]4CCCN4C(=O)[C@H](NC(=O)C4CC4)c4ccccc4)[nH]3)cc2)cc1)c1ccccc1)C1CC1` [Compound 190], the EC50 was below 1 nM.
Next, `C[C@H](NC(=O)[C@@H]1CCCN1C(=O)[C@H](NC(=O)C1CC1)c1ccccc1)c1ccc(C#Cc2ccc(-c3cnc([C@@H]4CCCN4C(=O)[C@H](NC(=O)C4CC4)c4ccccc4)[nH]3)cc2)cc1` [Compound 191]: below 1 nM; `CC(C)(C)OC(=O)N[C@@H](C(=O)N1CCC[C@H]1CNC(=O)c1ccc(C#Cc2ccc(-c3cnc([C@@H]4CCCN4C(=O)[C@H](NC(=O)OC(C)(C)C)c4ccccc4)[nH]3)cc2)cc1)c1ccccc1` [Compound 192]: 1 to 9.9 nM.
As for `O=C(NC[C@@H]1CCCN1C(=O)[C@H](NC(=O)C1CC1)c1ccccc1)c1ccc(C#Cc2ccc(-c3cnc([C@@H]4CCCN4C(=O)[C@H](NC(=O)C4CC4)c4ccccc4)[nH]3)cc2)cc1` [Compound 193], the figure is below 1 nM.
Regarding `O=C([C@@H](c1ccccc1)N1CCCC1)N1CCC[C@H]1c1ncc(-c2ccc(C#Cc3ccc(-c4cnc([C@@H]5CCCN5C(=O)[C@@H](c5ccccc5)N5CCCC5)[nH]4)cc3)cc2)[nH]1` [Compound 194], the EC50 was below 1 nM.
As for `COC(=O)N[C@@H](C(=O)N1CCC[C@H]1c1ncc(-c2ccc(C#Cc3ccc(-c4cnc([C@@H]5CCCN5C(=O)[C@H](NC(=O)[C@@H]5CCCO5)c5ccccc5)[nH]4)cc3)cc2)[nH]1)c1ccccc1` [Compound 195], the figure is below 1 nM; as for `COC(=O)N[C@@H](C(=O)N1CCC[C@H]1c1ncc(-c2ccc(C#Cc3ccc(-c4cnc([C@@H]5CCCN5C(=O)Nc5ccccc5)[nH]4)cc3)cc2)[nH]1)c1ccccc1` [Compound 196], 1 to 9.9 nM; as for `COC(=O)N[C@@H](C(=O)N1CCC[C@H]1c1ncc(-c2ccc(C#Cc3ccc(-c4cnc([C@@H]5CCCN5C(=O)NCc5ccccc5)[nH]4)cc3)cc2)[nH]1)c1ccccc1` [Compound 197], below 1 nM.
With `COC(=O)N[C@@H](C(=O)N1CCC[C@H]1c1ncc(-c2ccc(C#Cc3ccc(-c4cnc([C@@H]5CCCN5C(=O)N5CCOCC5)[nH]4)cc3)cc2)[nH]1)c1ccccc1` [Compound 198], the EC50 is below 1 nM.
Next, `COC(=O)N[C@@H](C(=O)N1CCC[C@H]1c1ncc(-c2ccc(C#Cc3ccc(-c4cnc([C@@H]5CCCN5C(=O)OCc5ccccc5)[nH]4)cc3)cc2)[nH]1)c1ccccc1` [Compound 200]: below 1 nM; `COC(=O)N[C@@H](C(=O)N1CCC[C@H]1c1ncc(-c2ccc(C#Cc3ccc(-c4cnc([C@@H]5CCCN5C(=O)[C@H](NC(=O)[C@H]5CCCO5)c5ccccc5)[nH]4)cc3)cc2)[nH]1)c1ccccc1` [Compound 201]: below 1 nM.
As for `COC(=O)N[C@@H](C(=O)N1CCC[C@H]1c1ncc(-c2ccc(C#Cc3ccc(-c4cnc([C@@H]5CCCN5C(=O)C5CCCN5C)[nH]4)cc3)cc2)[nH]1)c1ccccc1` (stereo partly shown) [Compound 202], the figure is below 1 nM; as for `COC(=O)N[C@@H](C(=O)N1CCC[C@H]1c1ncc(-c2ccc(C#Cc3ccc(-c4cnc([C@@H]5CCCN5C(=O)[C@H](NC(=O)[C@@H]5CCCN5C)c5ccccc5)[nH]4)cc3)cc2)[nH]1)c1ccccc1` [Compound 203], below 1 nM.
As for `COC(=O)N[C@@H](C(=O)N1CCC[C@H]1c1ncc(-c2ccc(C#Cc3ccc(-c4cnc([C@@H]5CCCN5C(=O)[C@H](NC(=O)[C@H]5CCCN5C)c5ccccc5)[nH]4)cc3)cc2)[nH]1)c1ccccc1` [Compound 204], the figure is below 1 nM; as for `O=C([C@@H](c1ccccc1)N1CCCCC1)N1CCC[C@H]1c1ncc(-c2ccc(C#Cc3ccc(-c4cnc([C@@H]5CCCN5C(=O)[C@@H](c5ccccc5)N5CCCCC5)[nH]4)cc3)cc2)[nH]1` [Compound 205], below 1 nM.
With `COC(=O)N[C@@H](C(=O)N1CCC[C@H]1c1ncc(-c2ccc(C#Cc3ccc(-c4cnc([C@@H]5CCCN5C(=O)[C@H](NC(=O)[C@@H]5CCCN5)c5ccccc5)[nH]4)cc3)cc2)[nH]1)c1ccccc1` [Compound 206], the EC50 is below 1 nM.

For the origin of these results see patent US8865756B2, “Inhibitors of HCV NS5A” (Presidio Pharmaceuticals, Inc., priority 2008, dated 2014).
